In PubChem BioAssay AID1437 (PCMD, 2008) one finds IC50 data, which are given here for three compounds.

In this assay the target is DNA repair protein RAD51 homolog 1 (Homo sapiens) (UniProt Q06609). The assay is described as follows: concentration-dependent blocking of RAD51 activity – biochemical, homologous recombination, fluorescence, second set, dose response (AID 1437). The note with it: RAD51 homologous recombination biochemical assay.

One may read the IC50 as the concentration needed to halve the response being measured.

The source made the active and inactive calls. The rule behind the calls is not given here. A value given as a limit tells only on which side of the number the result lay.

Chain of DNA repair protein RAD51 homolog 1 (Homo sapiens) (Q06609 whole entry, looked up): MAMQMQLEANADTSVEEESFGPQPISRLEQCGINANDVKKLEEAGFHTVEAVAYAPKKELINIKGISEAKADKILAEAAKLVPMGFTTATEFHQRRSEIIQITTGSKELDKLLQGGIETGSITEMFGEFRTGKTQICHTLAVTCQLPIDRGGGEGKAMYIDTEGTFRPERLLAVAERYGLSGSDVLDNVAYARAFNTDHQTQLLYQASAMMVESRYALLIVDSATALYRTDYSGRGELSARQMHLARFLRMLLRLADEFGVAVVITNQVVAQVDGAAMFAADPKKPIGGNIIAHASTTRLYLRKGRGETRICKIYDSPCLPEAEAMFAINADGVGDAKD

As to `Cc1ccc(C2/C(=C(\O)c3ccc4c(c3)OCCO4)C(=O)C(=O)N2CCCN(C)C)o1` (stereo not drawn), the IC50 was > 53 µM (inactive).
Next, `Cc1cc(C)cc(N2C(=O)CC(Sc3nnnn3-c3ccccc3)C2=O)c1` (stereo not drawn): > 53 µM (inactive).
Next, `COC(=O)c1ccc(=O)c2nc3/c(=C/O)c(O)cc(=O)c3[nH]c12`: 24.8 µM.
